Source: patent US20060058364A1, “Treatment of dependence and dependence related withdrawal symptoms” (priority 2002, published 2006)
Where two headings read alike, the source gives them in different places.

Tests used:
[1] = test system: 5-HT1A receptors or 5-HT1D receptors; settings: cited from earlier work
[2] = test system: atipamezole cue (atipamezole-associated lever selection); assay type: in vivo; settings: for dose at which full generalization was achieved: training dose 1 mg/kg s.c.
Experimental: A total of 50 Sprague-Dawley male rats (B&K, Sweden) were used in the drug discrimination experiment at Orion Pharma, Turku, Finland. The rats were housed in solid bottom polypropylene cages with stainless steel mesh lids 5 rats per cage on a 12/12 hour light/dark cycle (lights on at 06.00 a.m.) under standard conditions in 21±1° C. temperature. […] During training period the rats were allowed food 6-15 g/day immediately after the session and during testing period they were allowed 12-15 g/day after the session. The rats adopted well to this feeding schedule and grew slowly but steadily. Rats were drug and experimentally naive at the start of the experiments. All experimentation was approved by the local laboratory animal care and experimentation committee. The animals were housed according to the recommendations of Declaration of Helsinki and DHEW pub. No (NIH) 85-23 entitled “Guide for the care and use of laboratory animals”.
The drugs used were atipamezole HCl and MPV-1730 HCl (Orion Pharma, Finland), d-amphetamine sulphate (Sigma, USA), cocaine HCl (Tamro, Finland)) and desipramine HCl (Sigma, USA). All doses refer to respective salt forms. Drugs were diluted in sterile purified water (Aquasteril, Orion Pharma, Finland) and were prepared daily. Injections were given 30 min before the sessions. Saline (Natrosteril, Orion Pharma, Finland) was used in control administrations. Drugs were administered subcutaneously (s.c.) or intraperiotoneally (i.p.) in a volume of 1 ml/kg or perorally (p.o.) gy a gavage 10 ml/kg.
In the atipamezole discrimination experiment five identical operant chambers enclosed in larger sound and light attenuating, fan ventilated enclosures were used. Each chamber was equipped with two identical levers on one wall. Between these levers was a food cup, where 45 mg reward pellets (F0021, Bio-Serv, Frenchtown, USA) could be presented. The whole operant system was purchased from Rhema-Labortechnik, Hofheim, Germany.
The training to press levers for reward pellets was started with 50 rats with a continuous reinforcement (CRF) schedule, when both levers were active and later by changing daily the active lever. […] The duration of the session to this point was 30 min and thereafter the training sessions were reduced to 15 min. The discrimination training dose of atipamezole (1 mg/kg s.c.) was selected according to the effect of atipamezole (0, 0.1, 0.3, 1 and 3 mg/kg s.c.) on FR-10 responding when tested in the rats (session 30, data not shown). Thereafter, discrimination training was started with 46 rats. The discrimination training was done in following two week sequence: S-D-D-S-S and D-S-S-D-D (D=drug appropriate lever, S=saline lever) (Colpaert F., Niemegeers, C., Janssen, P. Theoretical and methodological considerations on drug discrimination learning. Psychopharmacologia (Berl.) 46: 169-177, 1976.). For half of the rats the right lever was a drug-appropriate lever and for the another half the left lever. During training only the drug- or saline-appropriate lever was active, but both levers were recorded. If a rat chose the correct lever during ten consecutive sessions and the total number of responses before the first reinforcer was 15 or less, the rat was accepted to the drug tests.
When the rats had reached the criterion, they were tested twice a week (usually on Wednesdays and Fridays) with different drugs. The normal sequence of saline or atipamezole was continued on other days. The lever selection had to be correct on the preceding day of the drug test and on the next day after drug test in order to be approved in the results. In the testing day, the rat decided which lever was activated by pressing ten lever presses on either of the levers. The selected lever was activated during the rest of the session. The previous saline day was used as a predrug control value. […]

amphetamine cue = settings: rats trained to discriminate d-amphetamine; cited from earlier work
[3] = test system: dopaminergic, 5-hydroxyhyptaminergic receptors and benzodiazepine receptors; settings: cited from earlier work
idazoxan cue = settings: rats trained to discriminate idazoxan; cited from earlier work
[4] = test system: psychostimulants such as amphetamine and cocaine (cue); settings: rat, in vivo; cited from earlier work
[5] = test system: alpha1-adrenergic, dopaminergic, GABAergic, serotonergic (such as 5-HT1A) etc. receptors; settings: cited from earlier work

Compound: COc1ccccc1N1CCN(CCN2C(=O)c3ccccc3C(C)(C)C2=O)CC1 [ARC 239]
- affinity on 5-HT1A receptors or 5-HT1D receptors [1]: have affinity

Compound: CCC1(c2c[nH]cn2)Cc2ccc(F)cc2C1 (stereo not drawn) [MPV-1730, 4-(2-ethyl-5-fluoro-2,3-dihydro-1H-inden-2-yl)-1H-imidazole]
- generalization to atipamezole cue ([2]; 0.01-1 mg/kg s.c., 30 min before session, FIG. 3): generalized to atipamezole cue

Compound: COc1ccc2c(c1)CCN1C[C@H]3CCCN(S(C)(=O)=O)[C@H]3C[C@@H]21 [delequamine]
- affinity on 5-HT1A receptors or 5-HT1D receptors [1]: have affinity

Compound: COC1(C2=NCCN2)COc2ccccc2O1 (stereo not drawn) [RX821002]
- affinity on 5-HT1A receptors or 5-HT1D receptors [1]: have affinity

Compound: c1ccc2c(c1)OCC(C1=NCCN1)O2 (stereo not drawn) [idazoxan]
- generalization to amphetamine (amphetamine cue): did not generalize
- affinity on 5-HT1A receptors or 5-HT1D receptors [1]: have affinity

Compound: COC(=O)[C@@H]1[C@H]2C[C@H]3c4[nH]c5ccccc5c4CCN3C[C@@H]2CC[C@@H]1O [yohimbine]
- generalization to amphetamine (amphetamine cue): did not generalize
- affinity to other than noradrenergic receptors [3]: has affinity

Compound: C[C@H](N)Cc1ccccc1 [d-amphetamine]
- generalization to idazoxan (idazoxan cue): did not generalize
- generalization to atipamezole cue ([2]; s.c., tested 0.03-1 mg/kg, at doses 0.5 and 1 mg/kg, 30 min before session, FIG. 2): clearly generalized

Compound: CNCCCN1c2ccccc2CCc2ccccc21 [desipramine]
- generalization to atipamezole ([2]; i.p., 30 min before session, FIG. 4): not generalized
- tolerability of higher doses ([2]; rat, in vivo): discontinued due to a prolonged lack of appetite
- generalisation to psychostimulants [4]: only weakly

Compound: CCC1(c2c[nH]cn2)Cc2ccccc2C1.Cl [Atipamezole, 4-(2-ethyl-2,3-dihydro-1H-inden-2-yl)-1H-imidazole hydrochloride]
- affinity for any other neurotransmitter receptors [5]: negligible affinity
- atipamezole-associated lever selection ([2]; 0.003-10 mg/kg, FIG. 1): dose-responsively increased
- dose at which full generalization was achieved ([2]; atipamezole p.o., 60 min before session, FIG. 1): 1 mg/kg
- dose at which full generalization was achieved ([2]; atipamezole s.c., 30 min before session, FIG. 1): 0.3 mg/kg

Compound: CC1c2ccccc2CN1CC1=NCCN1 (stereo not drawn) [BRL 44408]
- affinity on 5-HT1A receptors or 5-HT1D receptors [1]: have affinity
